Measurements as given in patent publication US10292949B2, “Pharmaceutical composition comprising rimeporide for treating diseases associated with insulin resistance and β-cell dysfunction” (Merck Patent GmbH, priority 2008, dated 2019).

How the values were obtained:
Type in all cases: in vivo, rat
[1] = system: Obese, insulin resistant ZF (fa/fa) rats; experiment: Pharmacological Study Report I: random and fasting blood glucose and plasma insulin levels; conditions: Compound A 150 mg/kg gavage twice daily, Compound B 40 mg/kg/day in chow
Protocol: Obese, insulin resistant ZF (fa/fa) rats, which are treated from the age of 8-12 weeks, were used as IR model. Rats were housed with a 12-h light/dark cycle and free access to food and water unless otherwise noted. Studies were approved by the Institutional Animal Care and Use Committee. There were a total of 18 animals in the study (8 week-old males, provided by Charles River). Animals were randomized into 3 groups (vehicle group, Compound A group, Compound B group, n=6 per group) based on random glucose level at the beginning of the study: • Group 1: ZF rats (fa/fa) (n=6), compound A (150 mg/kg via gavage) • Group 2: ZF rats (fa/fa) (n=6), compound B (40 mg/kg/day as admixture to the chow) • Group 3: ZF rats (fa/fa) (n=6), vehicle treatment (control chow, vehicle gavage)
Group 1 and 3 animals were treated with compound A or vehicle (water) for 4 weeks (from age 8-12 weeks) via oral gavage, twice daily. Chow containing compound B was fed to Group 2 ad lib. Group 1 and Group 3 were fed with chow without compound B ad lib.
Random morning blood was withdrawn from ad libitium fed rats by a small cut in the tip of the tail. Blood was collected in heparinized tubes. Blood glucose concentrations were measured as per study design using a One-Touch glucometer (Lifescan Inc, Milptias, Calif.). Blood samples were placed on ice and centrifuged, and plasma stored at −20° C. until insulin was assayed. Rat plasma insulin concentration was measured with rat-specific ELISA kit (Crystal Chem Inc, Downers Grove, Ill.).
Random morning blood glucose levels were measured weekly between 9-11 a.m.
At the end of the study, rats were fasted for 4 hours and glucose and insulin level were measured.

[2] = system: obese Zucker fa/fa rats; experiment: Pharmacological Study Report II: HbA1c levels; conditions: Mean ± SD; for Base line HbA1c: baseline; for Change in HbA1c: change over the 4 week treatment period; for Week 4 HbA1c: week 4 of treatment
Protocol: (§1) Thirty-six obese Zucker fa/fa and six lean Zucker fa/? male rats obtained from Charles River, were housed under normal vivarium conditions on a 12 hour light/dark cycle. The rats were kept two to a cage with food and water available ad lib, except during the weekly, 4 hour fasts. Water continued to be available during these fasts.
(§2) Compound A corresponds to Cariporide. Compound B corresponds to 2-Methyl-4,5-di-(methylsulfonyl)-benzoyl-guanidine hydrochloride hydrate. Compounds A and B were supplied in powder form by Merck Serono. Drugs were incorporated into a pelleted diet (LabDiet, 5001) by Research Diets, Inc (New Brunswick, N.J.) at concentrations of 0.44 g/kg or 0.88 g/kg of diet to yield approximate doses of 40 or 80 mg/kg. The concentration was calculated based on the assumption that a 300 g rat would eat about 30 g/d of chow. The same chow, but without drug, was fed to rats of both the lean and fa/fa control group animals.
One week prior to the start of the study, all rats were weighed. After a 4 hour fast, a blood sample was obtained for the determination of blood glucose, insulin, and glycosylated hemoglobin levels (HbA1c). Animals were then sorted on the basis of these parameters into the groups listed below. Rats were eight weeks of age at the onset of treatment.
(§3) • 1. ZF rats (fa/fa) (n=6) chow without drug • 2. ZF rats (fa/fa) (n=6) compound A (40 mg/kg/day) • 3. ZF rats (fa/fa) (n=6) compound A (80 mg/kg/day) • 4. ZF rats (fa/fa) (n=6) compound B (40 mg/kg/day) • 5. ZF rats (fa/fa) (n=6) compound B (80 mg/kg/day) • 6. lean Zucker rats (fa/?) (n=6) chow without drug Dosing Regime
Treatment appropriate chow was continuously available for 4 weeks except during scheduled 4 h fasts conducted once per week.
HbA1c level were determined using a DCA 2000 analyzer (Bayer Healthcare LLC, Elkhart Ind.) prior to beginning the study and again at the end of the 4th week treatment period.

[3] = system: obese Zucker fa/fa rats; experiment: Pharmacological Study Report II: 2H-glucose disposal test (2H-GDT) on Days 0, 14 and 28
Protocol: as §1, §2, §3
Insulin sensitivity (SI) and pancreatic compensation (PC) were measured by conducting ^2H-Glucose disposal test on Days 0, 14 and 28.
Time −4 h: Before the fast was begun on the morning of the GDT, a blood sample was taken to determine the random glucose level (see above). An additional blood sample was collected to determine the baseline ^2H2O and ^18O enrichments. The rats were weighed and the 4 h fast was begun. Water was available during the fast.
Time −3 h: One 1 hour after the start of the fast, 1.75 mg/g body weight of 10% H2^18O was administered by oral gavage (^2H2O-free H2O^18 water; 10% ^18O atom from Spectra; Cat. No 51350).
Time 0: 4 hours after the start of the fast, the blood glucose and insulin levels were determined. Rats received 4 ml/kg of a 50% glucose solution (comprised of 25% [6,6-^2H2] glucose and 25% D-glucose) by oral gavage.
At times 15, 30, 60 and 90 min post glucose challenge, blood glucose concentrations were again determined by a glucometer reading from tail vein blood. Additional blood samples were collected for insulin determinations. At 60 and 90 min post glucose challenge, whole blood was collected to determine the ^2H2O and H2^18O enrichments. All blood samples were centrifuged and the plasma was stored at −20° C. until assayed. The deuterium and oxygen-18 isotope enrichments of body water were determined by IRIS analysis of the water distillate of the plasma samples.
^2H2O enrichment was converted to mmol by multiplying enrichment (^2H2O APE) by the total body water pool size and dividing by 20 (molecular weight of ^2H2O). Total ^2H2O produced was calculated as the percent of the [6,6-^2H2] glucose load administered. Plasma insulin and glucose areas under the curve (AUC 60 min) were calculated using the trapezoidal method (GraphPad Prism).
Two parameters were calculated from the ^2H-GDT: • 1. Insulin sensitivity index (SI)=^2H2O production (% load)/(glucose AUC×insulin AUC). • 2. Pancreatic compensation (PC)=the absolute ^2H2O production as a percent of total [6,6-^2H2] glucose load (% load)/the integrated glucose response (glucose AUC; to correct for insulin-independent utilization). Statistics
Overall results of glucose and insulin measures were analyzed by a 2 way repeated measures ANOVA using drug and time (repeated) as factors. The primary analysis was followed by Bonferroni posttests to compare all groups. Data are considered significant at p<0.05. AUC 60 min values for glucose and insulin were analyzed by 1 way ANOVA followed by Tukey's comparison of all groups.

[4] = 40 and 80 mg/kg (neither dose), 4 weeks

With CC(C)c1ccc(C(=O)NC(=N)N)cc1S(C)(=O)=O [Compound A, Cariporide] the “Random morning blood glucose level vs vehicle group” value ([1]; 4 weeks) was “trended towards lower glucose level”, the “Fasting glucose levels, post vs pre treatment” value ([1]; 4 h fast, after 4 weeks) was “trended towards lower values post treatment” and the “Fasting insulin levels compared to pre-treatment levels” value ([1]; 4 h fast, after 4 weeks) was “significantly lower”. The “Base line HbA1c” value ([2]; 40 mg/kg group) was 4.0 ± 0.5%, the “Base line HbA1c” value ([2]; 80 mg/kg group) was 3.9 ± 0.4% and the “Change in HbA1c” value ([2]; 40 mg/kg) was 0.4 ± 0.6%. For the same molecule, the “Change in HbA1c” value ([2]; 80 mg/kg) was 0.4 ± 0.9%, the “Week 4 HbA1c” value ([2]; 40 mg/kg in chow) was 4.4 ± 0.2% and the “Week 4 HbA1c” value ([2]; 80 mg/kg in chow) was 4.4 ± 0.52%. For the same molecule, the “Glucose level at the 90 min time point of the 2H-GDT vs fa/fa vehicle” value ([3]; 40 mg/kg, 4 weeks of treatment) was “elevated above that of the fa/fa vehicle treated rats”, the “Blood glucose and insulin concentrations in response to glucose challenge (2H-GDT)” value ([3]; 4 weeks after start of treatment, 40 and 80 mg/kg) was “continued to have elevated” and the Glucose tolerance ([3]; 4 weeks of treatment) was “did not improve”. The “Glucose levels (either fasting or in response to challenge)” value [3, 4] was “Neither dose of Compound A significantly improved”, the “Insulin sensitivity (SI)” value [3, 4] was “Neither dose of Compound A significantly improved” and the “Pancreatic compensation (PC)” value [3, 4] was “Neither dose of Compound A significantly improved”. For the same molecule, the “Glucose or insulin response to glucose challenge (2H-GDT)” value ([3]; after 2 weeks of treatment, 40 and 80 mg/kg) was “did not affect”.
